A short description of data set [1]: Pharmacokinetic study, intramuscular injection, four arm parallel. Type of data set: in vivo, male Sprague-Dawley Rats. The conditions noted are these: male, Sprague-Dawley, im, rat. As for the experimental part: A long acting formulation is expected to suppress the maximum blood concentration (Cmax) and maintain therapeutic blood profiles for an extended period of time. […] To evaluate the in-vivo performance of our formulations, three suspensions of Lurasidone HCl were prepared with varying particle size and/or viscosity at 100 mg/mL with compositions given in Table 23, and with processes shown in FIGS. 11, 12 and 13 for Suspensions 1, 2, and 3, respectively. As a control, a solution of Lurasidone HCl was prepared at 2.5 mg/mL. […]
The blood samples were collected, placed into chilled tubes containing sodium heparin, inverted several times to mix, and kept on ice until centrifugation. […] Samples were analyzed with LC-MS/MS against an eight point standard curve with concentrations ranging from 0.05 ng/mL to 100 ng/mL. […]
Mass Spectrometer Conditions • Instrument: PE Sciex API4000 • Interface: Electrospray (“Turbo Ion Spray”) • Mode: Multiple reactions monitoring (MRM) • Gases: CUR 20, CAD 10, GS1 50, GS2 50 • Source Temperature: 500° C. • Voltages and Ions Monitored:
The formulations were well tolerated, and no adverse local or systemic reactions were observed following intramuscular administration of lurasidone to the animals. (Pharmacokinetic parameters were calculated with Phoenix WinNonlin version 6.4). […]

The conditions of data set [2]: after oral administration of a 40 mg tablet; package insert; cited from earlier work.
The conditions of data set [3]: pH dependence; cited from earlier work.
The conditions of data set [4]: weight gain, diabetes risk, dyslipidemia risk; cited from earlier work.

Read-outs that look alike come from different tables or passages of the source. Some results are limits rather than exact numbers.

For orientation: half-life means the time in which the quantity being followed falls by half. For `O=C1[C@@H]2[C@H]3CC[C@H](C3)[C@@H]2C(=O)N1C[C@@H]1CCCC[C@H]1CN1CCN(c2nsc3ccccc23)CC1` [lurasidone], the half-life in data set [1] (1.5 mg/kg, calculated based on terminal phase plasma concentrations above 2% of Cmax) is 10 h; in data set [1] (plasma, 45 mg/kg), at most 505 h; in data set [2], 18 h. Moreover, the solubility profile entry in data set [3] was “lower solubility at higher pH values”. The metabolic effects entry in data set [4] was “low”.
`OCCOCCN1CCN(C2=Nc3ccccc3Sc3ccccc32)CC1` [quetiapine]: in data set [4], the metabolic effects entry is reported as “moderate to high”.
For `Cc1cc2c(s1)Nc1ccccc1N=C2N1CCN(C)CC1` [olanzapine], in data set [4], the metabolic effects result is reported as “moderate to high”.
Take `CN1CCN(C2=Nc3cc(Cl)ccc3Nc3ccccc32)CC1` [clozapine]: in data set [4], the metabolic effects entry was “moderate to high”.

(Values after patent US20170196802A1, “Long Acting Injectable Formulations” (Abon Pharmaceuticals, LLC, priority 2016, published 2017).)
